Several values for one entry are separate records, joined by “and”; a condition that tells them apart may be missing. Equal entries are not always repeated.

From paper PMC8154419, “Druggable Hot Spots in the Schistosomiasis Cathepsin B1 Target Identified by Functional and Binding Mode Analysis of Potent Vinyl Sulfone Inhibitors” (ACS Infectious Diseases, 2020) come the findings set out here.

This test concerns the target SmCB1 (Schistosoma mansoni, UniProt Q8MNY2, T185A/T300A). In words: SmCB1 kinetic inhibition assay (IC50) with fluorogenic substrate Cbz–Phe–Arg–AMC. Format: biochemical. Particulars: recombinant SmCB1, Cbz–Phe–Arg–AMC, pH 5.5; mean ± SE, triplicate; n.i.: no significant inhibition at 100 μM. The source says: Thirty-four peptidomimetic vinyl sulfone analogs (including vinyl sulfonamides and vinyl sulfonate esters) were explored as potential inhibitors of SmCB1 to infer the structural requirements of the inhibitor-binding subsites in the enzyme active site cleft. The compound scaffold is defined by positions P3 through P1′, and the substitutions were selected to provide a high diversity at P2 and P1′ (Table 1). These two positions were recently reported to display large differences in the subsite interaction energy in response to their structural modifications.[10] The compounds were screened in vitro against recombinant SmCB1, and their IC50 values were determined using a kinetic inhibition assay with the fluorogenic substrate Cbz–Phe–Arg–AMC.
Inhibition measurements were performed in triplicates in 96-well microplates (100 μL assay volume) at 37 °C. […] The kinetics of product release was continuously monitored in an Infinite M1000 microplate reader (Tecan) at excitation and emission wavelengths of 360 and 465 nm, respectively. The IC50 values were determined by nonlinear regression using GraFit software. To determine the inhibition constant k2nd, the enzyme (40 pM SmCB1 or 60 pM HuCB) was added to a mixture of the fluorogenic substrate Cbz–Phe–Arg–AMC (20 μM for SmCB1 and 33 μM for HuCB) and an inhibitor (0–1 μM) in the assay buffer under assay conditions as above. The hydrolysis of substrate was monitored for 30 min in a microplate reader as described above. An observed rate constant, kobs, was calculated at each inhibitor concentration by fitting the progress curve to the equation P = vi/kobs(1 – e^–kobst), where P is the product formation, vi is the initial velocity, and t is the reaction time. For both enzymes, kobs varied linearly with the inhibitor concentration showing that the dependence of kobs on the inhibitor concentration is nonsaturating. […] The second order rate constant, k2nd, was determined by fitting to the linear equation kobs = (k2nd[I])/(1 + [S]/KM), where [S] is the substrate concentration, [I] is the inhibitor concentration, and KM is the Michaelis–Menten constant. KM values determined for SmCB1 and HuCB were 25 and 38 μM, respectively.

Sequence of SmCB1 (Q8MNY2 87-340 T185A/T300A): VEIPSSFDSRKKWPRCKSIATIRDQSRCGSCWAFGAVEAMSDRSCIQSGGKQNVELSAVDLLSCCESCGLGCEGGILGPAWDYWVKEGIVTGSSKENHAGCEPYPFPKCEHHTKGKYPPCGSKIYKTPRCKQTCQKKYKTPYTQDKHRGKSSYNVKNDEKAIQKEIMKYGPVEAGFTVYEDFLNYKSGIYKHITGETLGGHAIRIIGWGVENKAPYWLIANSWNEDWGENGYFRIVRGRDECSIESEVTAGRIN

By IC50 is commonly meant the concentration needed to halve the response being measured. For `O=C(N[C@H](/C=C/S(=O)(=O)c1ccccc1)CCc1ccccc1)[C@H](Cc1ccccc1)NC(=O)N1CCC(N2CCOCC2)CC1` [CRA-554], the half-inhibitory concentration (IC50) amounted to 6 ± 0.89 nM.

For `CCCC[C@@H](/C=C/S(=O)(=O)c1ccccc1)NC(=O)[C@@H](N)Cc1cc(I)c(O)c(I)c1` [CRA-373], the IC50 was determined as 425 ± 46 nM.

Turning to `O=C(N[C@@H](Cc1ccccc1)C(=O)N[C@H](/C=C/S(=O)(=O)Oc1ccc([N+](=O)[O-])cc1)CCc1ccccc1)OCc1ccccc1` [WRR-258], the half-maximal inhibitory concentration (IC50) is 50.1 ± 4.9 nM. With `CCCC[C@@H](/C=C/S(=O)(=O)c1ccccc1)NC(=O)[C@H](Cc1ccccc1)NC(=O)N1CCC(N2CCCCC2)CC1` [CRA-892], the IC50 came out at 7.5 ± 0.58 nM. The same measure, in the same setting: to `CCCC[C@@H](/C=C/S(=O)(=O)c1ccccc1)NC(=O)[C@H](Cc1ccccc1)NC(=O)N1CCC(N2CCOCC2)CC1` [CRA-553] belongs 13.2 ± 1.3 nM; to `CN1CCN(C(=O)N[C@@H](Cc2ccccc2)C(=O)N[C@H](/C=C/S(=O)(=O)Oc2ccc(F)cc2)CCc2ccccc2)CC1` [WRR-353], 119 ± 16 nM; to `C[C@@H](/C=C/S(=O)(=O)NCc1ccc(F)cc1F)NC(=O)[C@H](Cc1ccccc1)NC(=O)OCc1ccccc1` [WRR-197], 1130 ± 120 nM. Take `CCC[C@@H](/C=C/S(=O)(=O)c1ccccc1)NC(=O)C1(NC(=O)N2CCN(C)CC2)CCCCC1` [CRA-555]: the “Inhibition IC50” value is “n.i”. For `CCC[C@@H](/C=C/S(=O)(=O)c1ccccc1)NC(=O)[C@H](Cc1ccccc1Cl)NC1=NS(=O)(=O)c2ccccc21` [CRA-383], the half-inhibitory concentration (IC50) is 10000 to 100000 nM. With `O=C(N[C@H](/C=C/S(=O)(=O)c1ccccc1)CCc1ccccc1)[C@H](CS(=O)(=O)Cc1ccccc1OC(F)F)NC(=O)N1CCOCC1` [CRA-012], the half-maximal inhibitory concentration (IC50) worked out at 477 ± 43 nM. On to `CCC[C@@H](/C=C/S(=O)(=O)c1ccccc1)NC(=O)[C@H](CC1CCCCC1)NC=NS(=O)(=O)c1ccccc1` [CRA-359], for which the half-maximal inhibitory concentration (IC50) worked out at 9990 ± 280 nM. As to `C[C@@H](/C=C/S(=O)(=O)NCc1ccc(Cl)cc1)NC(=O)[C@H](Cc1ccccc1)NC(=O)OCc1ccccc1` [WRR-201], the half-inhibitory concentration (IC50) turned out to be 541 ± 76 nM. In the case of `O=C(N[C@H](/C=C/S(=O)(=O)c1ccccc1)CCc1ccccc1)[C@H](CS(=O)(=O)Cc1ccccc1)NC(=O)N1CCOCC1` [CRA-891], the concentration for half-maximal inhibition (IC50) was 212 ± 10 nM. `C[C@@H](/C=C/S(=O)(=O)NCc1ccc(F)cc1)NC(=O)[C@H](Cc1ccccc1)NC(=O)OCc1ccccc1` [WRR-196]: the IC50 was 1250 ± 173 nM.

On to `O=C(N[C@@H](Cc1cc(I)c(O)c(I)c1)C(=O)N[C@H](/C=C/S(=O)(=O)c1ccccc1)CCc1ccccc1)c1ccc(N2CCOCC2)cc1` [CRA-422], for which the 50% inhibitory concentration (IC50) amounted to 665 ± 98 nM. For the compound `C[C@@H](/C=C/S(=O)(=O)Oc1ccccc1)NC(=O)[C@H](Cc1ccccc1)NC(=O)OCc1ccccc1` [WRR-199], the concentration for half-maximal inhibition (IC50) is 2.55 ± 0.2 nM.

As for `CCC[C@@H](/C=C/S(=O)(=O)c1ccccc1)NC(=O)[C@H](Cc1ccc(F)cc1)NC(=O)N1CCC(N2CCOCC2)CC1` [CRA-552], the IC50 amounted to 202 ± 25 nM. In the case of `CCCC[C@@H](/C=C/S(=O)(=O)c1ccccc1)NC(=O)[C@H](Cc1cc(I)c(O)c(I)c1)NC(=O)OC(C)(C)C` [CRA-372], the IC50 worked out at 6250 ± 322 nM. Take `CNS(=O)(=O)/C=C/[C@H](C)NC(=O)[C@H](Cc1ccccc1)NC(=O)OCc1ccccc1` [WRR-206]: the IC50 turned out to be 93.7 ± 7.3 nM. As for `CCC[C@@H](/C=C/S(=O)(=O)c1ccccc1)NC(=O)[C@H](Cc1ccccc1)NC(=O)N1CCC(N2CCOCC2)CC1` [CRA-446], the half-maximal inhibitory concentration (IC50) came to 44.6 ± 6.1 nM. `O=C(N[C@@H](Cc1ccccc1)C(=O)N[C@H](/C=C/S(=O)(=O)CCc1ccccc1)CCc1ccccc1)OCc1ccccc1` [WRR-257]: the IC50 worked out at 9520 ± 607 nM. In the case of `CCOC(=O)C1CCN(C(=O)N[C@@H](CC2CCCCC2)C(=O)N[C@H](/C=C/S(=O)(=O)c2ccccc2)CCc2ccccc2)CC1` [WRR-436], the IC50 came to 72.1 ± 9.1 nM. As for `C[C@@H](/C=C/S(=O)(=O)NCCc1ccccc1)NC(=O)[C@H](Cc1ccccc1)NC(=O)OCc1ccccc1` [WRR-186], the IC50 came to 629 ± 57 nM. The same measure, in the same setting: to `CCC[C@@H](/C=C/S(=O)(=O)c1ccccc1)NC(=O)[C@H](Cc1ccc2ccccc2c1)NC(=O)N1CCC(N2CCOCC2)CC1` [CRA-547] belongs ~40 nM and 39.2 nM.

Take `CCC[C@@H](/C=C/S(=O)(=O)c1ccccc1)NC(=O)[C@H](CSCc1ccccn1)NC1=NS(=O)(=O)c2ccccc21` [CRA-393]: the concentration for half-maximal inhibition (IC50) was 3450 ± 346 nM. Turning to `O=C(N[C@H](/C=C/S(=O)(=O)c1ccccc1)CCc1ccccc1)[C@H](CCS(=O)(=O)c1ccccc1)NC(=O)N1CCOCC1` [CRA-009], the IC50 was 186 ± 19 nM. For the compound `CCC[C@@H](/C=C/S(=O)(=O)c1ccccc1)NC(=O)[C@H](Cc1c(F)cccc1F)NC(=O)c1ccc(-c2ccccc2Cl)cc1` [CRA-845], the “Inhibition IC50” value is “n.i”. Turning to `O=C(N[C@@H](Cc1ccccc1)C(=O)N[C@H](/C=C/S(=O)(=O)c1ccccn1)CCc1ccccc1)OCc1ccccc1` [WRR-255], the IC50 amounted to 1.5 ± 0.13 nM.
